From paper PMC10009750, “Development of Selective ADAMTS-5 Peptide Substrates to Monitor Proteinase Activity” (Journal of Medicinal Chemistry, 2023) come the findings set out here.

Type in all cases: biochemical
The target of one assay is T1, TS5-5 (ADAMTS-5) (Homo sapiens, UniProt Q9UNA0).
T1 construct: ADAMTS-5 (i.e. TS5-5, residues 264–555); FLAG; made in house; host or cells: HEK293 cells (previously transfected stocks)
T1 sequence (Q9UNA0 264-555): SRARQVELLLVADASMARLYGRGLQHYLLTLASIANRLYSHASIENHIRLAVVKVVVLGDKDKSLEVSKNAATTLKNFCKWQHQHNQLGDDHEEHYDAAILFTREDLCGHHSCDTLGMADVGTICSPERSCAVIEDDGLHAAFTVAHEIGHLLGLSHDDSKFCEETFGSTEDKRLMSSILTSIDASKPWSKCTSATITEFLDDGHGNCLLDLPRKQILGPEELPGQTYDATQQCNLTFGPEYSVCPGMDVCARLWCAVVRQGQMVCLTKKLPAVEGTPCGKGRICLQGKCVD
As to the kind of experiment: Sensitivity studies with TS5-5. The conditions noted are these: 37 °C; for ΔRFU after 20 h: single experiment in triplicate; for lowest ADAMTS-5 concentration at which activity is detected: 5 μM substrate, experiments performed for ∼20 h. How it is done: Abz-TESE↓SRGAIY-Dpa-KK-NH2, library parent peptide 3 and hit peptide 26 (5 mM) were each diluted to two concentrations (5.56 μM and 2.78 μM) in freshly prepared TNC buffer with 0.005% (v/v) Brij-35. The two concentrations for each substrate (90 μL) were added to a 96-well black microplate in triplicate. A substrate-only background control was also added in triplicate (90 μL). The resultant solutions were incubated at 37 °C (20 min). TS5-5 proteinase was thawed from −20 °C and made up at the following concentrations in TNC buffer with 0.005% (v/v) Brij-35:10, 5, 2.5, and 1.25 nM. Each concentration of proteinase was added to substrate wells (10 μL), with buffer added to substrate-only control wells (10 μL). The relative fluorescence intensity was measured at 37 °C for 24 h, with readings every 2 min.

In another assay the target is T2, TS4-4 (ADAMTS-4) (Homo sapiens, UniProt O75173).
T2 construct: TS4-4, TS5-5 = catalytic and disintegrin domains; made in house; host or cells: HEK293 cells (previously transfected stocks)
T2 sequence (O75173 213-519 limits assumed): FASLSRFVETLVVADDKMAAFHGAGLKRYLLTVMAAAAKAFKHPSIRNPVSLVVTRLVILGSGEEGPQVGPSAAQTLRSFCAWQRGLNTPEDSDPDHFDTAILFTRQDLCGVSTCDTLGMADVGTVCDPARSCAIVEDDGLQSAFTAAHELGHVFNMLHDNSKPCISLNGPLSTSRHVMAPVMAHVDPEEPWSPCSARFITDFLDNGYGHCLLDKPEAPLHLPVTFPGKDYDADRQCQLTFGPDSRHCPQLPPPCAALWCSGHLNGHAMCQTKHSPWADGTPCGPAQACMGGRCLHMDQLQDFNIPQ
Briefly: Selectivity studies: cleavage of FRET peptide substrates by TS4-4. The conditions noted are these: substrate 20 μM; for preference (selectivity) for TS5-5 over TS4-4: ratio of cleavage rates; for rate of cleavage by TS4-4: TS4-4 50–90 nM, mean of 3–4 independent experiments in triplicate. The protocol:
(§1) All proteinase assays were performed at 37 °C in a SpectraMax M5 spectrophotometer (Molecular Devices, San Jose, USA) using a 96-well black microplate (Greiner bio-one, Stonehouse, UK) unless otherwise stated. […] N-TIMP-3 was purified as described previously[30] and CT-1746 was a gift from Dr. Yoshifumi Itoh (Kennedy Institute of Rheumatology, University of Oxford). All analyses were carried out using Prism 9 software (GraphPad, La Jolla, CA, USA).
(§2) Selectivity studies are described for Abz-TESE↓SRGAIY-Dpa-KK-NH2, the library parent peptide 3, and hit peptides 18–26. A solution of Abz-TESE↓SRGAIY-Dpa-KK-NH2 (22.22 μM) in freshly prepared TNC buffer with 0.005% (v/v) Brij-35 (90 μL) was added to a 96-well clear bottom microplate (Greiner bio-one, Stonehouse, UK) in triplicate. A substrate-only background control was also added in triplicate (90 μL). The resultant solutions were incubated at 37 °C (30 min). An ADAMTS or MMP proteinase was added to substrate wells (10 μL) to give a final proteinase concentration of either 50–90 nM (TS4-4), 25–200 nM (TS5-5), 5–10 nM (MMP-2ΔC), 30 nM (MMP-9ΔC), 92 nM (MMP-1), or 3 μM (MMP-3). TNC buffer with 0.005% (v/v) Brij-35 was added to substrate-only control wells (10 μL). The relative fluorescence intensity was measured at 37 °C for 1 h with readings every 20 s. Activity was read from underneath the microplate, which was covered with a low evaporation lid. […] For each ADAMTS and MMP proteinase, the assay was performed 2–4 times. […] Final rates were expressed as a percentage of substrate cleavage by TS5-5 (mean ± SEM) or in μM s^–1 μM^–1 of proteinase.

Assay [1] deals with MMP-2ΔC (catalytic domain of MMP-2). Briefly: Selectivity studies: cleavage of FRET peptide substrates by MMP-2ΔC. The conditions noted are these: substrate 20 μM; for preference (selectivity) for TS5-5 over MMP-2ΔC: ratio of cleavage rates. How it is done:
as §1, §2

For assay [2], the system named is MMP-9ΔC (catalytic domain of MMP-9). As to the kind of experiment: Selectivity studies: cleavage of FRET peptide substrates by MMP-9ΔC. The conditions noted are these: ratio of cleavage rates, substrate 20 μM. The protocol:
as §1, §2

[3] abbreviates: TNC buffer with 0.005% (v/v) Brij-35, 37 °C.
Where [4] appears, read: TNC buffer with 0.005% (v/v) Brij-35, 37 °C, mean of 2–8 independent experiments in triplicate.

Non-standard residues stand in square brackets, D forms with d. No end group written: not given here. Tyr(3-NO2) = N[C@@H](Cc1ccc(O)c([N+](=O)[O-])c1)C(=O)O; 2Abz = Nc1ccccc1C(=O)O

Consider “KY(NO2)TESESRGK(Abz)IYYKKG (K[Tyr(3-NO2)]TESESRGK(Abz)IYYKKG) [Compound 3]”, for which the “ΔRFU after 20 h” value in the assay with TS5-5 (ADAMTS-5) (0.25 nM TS5-5, substrate 5 μM) was > 30; in the assay with TS5-5 (ADAMTS-5) (0.5 nM TS5-5, substrate 5 μM), > 100; in the assay with TS5-5 (ADAMTS-5) (1 nM TS5-5, substrate 5 μM) it was > 100. The “lowest ADAMTS-5 concentration at which activity is detected” value with TS5-5 (ADAMTS-5) is listed as 0.25 nM. Moreover, the “preference (selectivity) for TS5-5 over TS4-4” value in the assay with TS4-4 (ADAMTS-4) is ~16 fold. Besides, in the assay with TS4-4 (ADAMTS-4) (setting [3]), the “rate of cleavage by TS4-4” value is recorded as 0.08–0.10 μM s^–1 μM^–1. For the same substance, the “preference (selectivity) for TS5-5 over MMP-2ΔC” value in assay [1] is on record as ~10 fold. The “preference (selectivity) for TS5-5 over MMP-9ΔC” value in assay [2] is recorded as ~2561 fold.
“Abz-TESE↓SRGAIY-Dpa-KK-NH2 [current, ortho-aminobenzoyl(Abz)-TESE↓SRGAIY-N-3-[2,4-dinitrophenyl]-L-2,3-diaminopropionyl(Dpa)-KK-NH2, reference compound]”: the “ΔRFU after 20 h” value on TS5-5 (ADAMTS-5) (0.25 nM TS5-5, substrate 5 μM) is “no longer able to detect TS5-5 activity above background fluorescence”; on TS5-5 (ADAMTS-5) (0.5 nM TS5-5, substrate 5 μM), 59; on TS5-5 (ADAMTS-5) (1 nM TS5-5, substrate 5 μM), > 100. On TS4-4 (ADAMTS-4), the “preference (selectivity) for TS5-5 over TS4-4” value is ~5 fold. The “cleavage by TS4-4 as a fraction (percentage) of TS5-5 cleavage of the current substrate” value at TS4-4 (ADAMTS-4) (setting [4]) is reported as 22%. Besides, the “rate of cleavage by TS4-4” value on TS4-4 (ADAMTS-4) (setting [3]) worked out at 0.090 μM s^–1 μM^–1. Further, in assay [1], the “preference (selectivity) for TS5-5 over MMP-2ΔC” value is listed as ~0.7 fold. Besides, the “cleavage by MMP-2ΔC as a fraction (percentage) of TS5-5 cleavage of the current substrate” value in assay [1] (setting [4]) came out at 138%. In assay [2], the “preference (selectivity) for TS5-5 over MMP-9ΔC” value was ~213 fold.
Turning to “KY(NO2)SENESRGK(Abz)IYYKKG (K[Tyr(3-NO2)]SENESRGK(2Abz)IYYKKG) [Compound 26]”, the “ΔRFU after 20 h” value with TS5-5 (ADAMTS-5) (0.25 nM TS5-5, substrate 5 μM) was > 30; in the assay with TS5-5 (ADAMTS-5) (0.5 nM TS5-5, substrate 5 μM), > 100; with TS5-5 (ADAMTS-5) (1 nM TS5-5, substrate 5 μM) it was > 100. Also, the “lowest ADAMTS-5 concentration at which activity is detected” value with TS5-5 (ADAMTS-5) is on record as 0.25 nM. The “preference (selectivity) for TS5-5 over TS4-4” value in the assay with TS4-4 (ADAMTS-4) was ~13 fold. In addition, the “rate of cleavage by TS4-4” value in the assay with TS4-4 (ADAMTS-4) (setting [3]) was 0.08–0.10 μM s^–1 μM^–1. Besides, in assay [1], the “preference (selectivity) for TS5-5 over MMP-2ΔC” value is ~8 fold. Besides, the “preference (selectivity) for TS5-5 over MMP-9ΔC” value in assay [2] is ~548 fold.
